# Starred links: 1 amine or outer side, 2 acyl side, 3 side chain; linkers in the order of their positions; H or OH if unused. Positions of bridges follow the written chain, without caps; N, C: chain ends. Residues, ends and D or L forms follow the SMILES beside them. *: point of attachment. C20 diacid = O=C(O)CCCCCCCCCCCCCCCCCCC(=O)*; γGlu = O=C(O)[C@H](CCC(=O)[*:2])N[*:1]
# Assay: Assay (III) ThT fibrillation assay for physical stability
# Type: physicochemical
# Conditions: for ThT pH 4.0 lag time: pH 4.0, ThT fibrillation assay
# Method in brief: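 Freshly prepared, pH-adjusted formulations with 1 μM ThT incubated at 37 °C under 960 rpm orbital shaking (1 mm), fluorescence (ex 444, em 485 nm) read every 20 min. […] Peptide content before and after measured by reverse-phase HPLC against pramlintide standard.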
SMILES,ThT pH 4.0 lag time (physical stability in fibrillogenesis assay),ThT pH 4.0 lag time
"CC[C@H](C)[C@H](NC(=O)[C@@H]1CCCN1C(=O)CNC(=O)[C@H](Cc1ccccc1)NC(=O)[C@H](CC(N)=O)NC(=O)[C@H](CCC(N)=O)NC(=O)[C@H](CO)NC(=O)[C@H](CO)NC(=O)[C@H](Cc1c[nH]cn1)NC(=O)[C@H](CCCNC(=N)N)NC(=O)[C@H](CC(C)C)NC(=O)[C@H](Cc1ccccc1)NC(=O)[C@H](CCC(=O)O)NC(=O)[C@H](C)NC(=O)[C@H](CC(C)C)NC(=O)[C@H](CCCNC(=N)N)NC(=O)[C@H](CCC(N)=O)NC(=O)[C@@H](NC(=O)[C@H](C)NC(=O)[C@@H]1CSSC[C@H](NC(=O)[C@H](CCC(=O)O)NC(=O)[C@H](CCCNC(=N)N)NC(=O)[C@H](CCC(=O)O)NC(=O)CC[C@H](NC(=O)CCCCCCCCCCCCCCCCCCC(=O)O)C(=O)O)C(=O)N[C@@H](CC(N)=O)C(=O)N[C@@H]([C@@H](C)O)C(=O)N[C@@H](C)C(=O)N[C@@H]([C@@H](C)O)C(=O)N1)[C@@H](C)O)C(=O)N[C@@H](CC(C)C)C(=O)N1CCC[C@H]1C(=O)N1CCC[C@H]1C(=O)N[C@H](C(=O)N[C@@H](CCC(N)=O)C(=O)N[C@H](C(=O)NCC(=O)N[C@@H](CO)C(=O)N[C@@H](CCC(N)=O)C(=O)N[C@H](C(=O)N1CCC[C@H]1C(N)=O)[C@@H](C)O)C(C)C)[C@@H](C)O [Example 163, N-alpha-[(S)-4-Carboxy-4-(19-carboxynonadecanoylamino)butyryl]-Glu-Arg-[Glu1,Glu14,Arg17,Gln21,Gln31,Gln35,Pro37]-pramlintide] ({C20 diacid-γGlu}-ERECNTATCATQRLAEFLRHSSQNFGPILPPTQVGSQTP-NH2; disulfide 4-9 (inferred))",>45 h,>45 h
"CC[C@H](C)[C@H](NC(=O)[C@@H]1CCCN1C(=O)CNC(=O)[C@H](Cc1ccccc1)NC(=O)[C@H](CC(N)=O)NC(=O)[C@H](CC(N)=O)NC(=O)[C@H](CO)NC(=O)[C@H](CO)NC(=O)[C@H](Cc1c[nH]cn1)NC(=O)[C@H](Cc1c[nH]cn1)NC(=O)[C@H](CC(C)C)NC(=O)[C@H](Cc1ccccc1)NC(=O)[C@H](CCC(=O)O)NC(=O)[C@H](C)NC(=O)[C@H](CC(C)C)NC(=O)[C@H](CCCNC(=N)N)NC(=O)[C@H](CCC(N)=O)NC(=O)[C@@H](NC(=O)[C@H](C)NC(=O)[C@@H]1CSSC[C@H](NC(=O)[C@H](Cc2c[nH]cn2)NC(=O)[C@H](Cc2c[nH]cn2)NC(=O)[C@H](Cc2c[nH]cn2)NC(=O)CC[C@H](NC(=O)CCCCCCCCCCCCCCCCCCC(=O)O)C(=O)O)C(=O)N[C@@H](Cc2c[nH]cn2)C(=O)N[C@@H]([C@@H](C)O)C(=O)N[C@@H](C)C(=O)N[C@@H]([C@@H](C)O)C(=O)N1)[C@@H](C)O)C(=O)N[C@@H](CC(C)C)C(=O)N1CCC[C@H]1C(=O)N1CCC[C@H]1C(=O)N[C@H](C(=O)N[C@@H](CC(N)=O)C(=O)N[C@H](C(=O)NCC(=O)N[C@@H](CO)C(=O)N[C@@H](Cc1c[nH]cn1)C(=O)N[C@H](C(=O)N[C@@H](Cc1ccc(O)cc1)C(N)=O)[C@@H](C)O)C(C)C)[C@@H](C)O [Example 32, N-alpha-[(S)-4-Carboxy-4-(19-carboxynonadecanoylamino)butyryl]-His-His-[His1,His3,Glu14,His17,His35]-pramlintide] ({C20 diacid-γGlu}-HHHCHTATCATQRLAEFLHHSSNNFGPILPPTNVGSHTY-NH2; disulfide 4-9)",,>45 h
"CC[C@H](C)[C@H](NC(=O)[C@@H]1CCCN1C(=O)CNC(=O)[C@H](Cc1ccccc1)NC(=O)[C@H](CC(N)=O)NC(=O)[C@H](CC(N)=O)NC(=O)[C@H](CO)NC(=O)[C@H](CO)NC(=O)[C@H](Cc1c[nH]cn1)NC(=O)[C@H](CCCNC(=N)N)NC(=O)[C@H](CC(C)C)NC(=O)[C@H](Cc1ccccc1)NC(=O)[C@H](CCC(=O)O)NC(=O)[C@H](C)NC(=O)[C@H](CC(C)C)NC(=O)[C@H](CCCNC(=N)N)NC(=O)[C@H](CCC(N)=O)NC(=O)[C@@H](NC(=O)[C@H](C)NC(=O)[C@@H]1CSSC[C@H](NC(=O)CNC(=O)CC[C@H](NC(=O)CCCCCCCCCCCCCCCCCCC(=O)O)C(=O)O)C(=O)N[C@@H](CC(N)=O)C(=O)N[C@@H]([C@@H](C)O)C(=O)N[C@@H](C)C(=O)N[C@@H]([C@@H](C)O)C(=O)N1)[C@@H](C)O)C(=O)N[C@@H](CC(C)C)C(=O)N1CCC[C@H]1C(=O)N1CCC[C@H]1C(=O)N[C@H](C(=O)N[C@@H](CC(N)=O)C(=O)N[C@H](C(=O)NCC(=O)N[C@@H](CO)C(=O)N[C@@H](CC(N)=O)C(=O)N[C@H](C(=O)N1CCC[C@H]1C(N)=O)[C@@H](C)O)C(C)C)[C@@H](C)O [Example 88, N-alpha-[(S)-4-Carboxy-4-(19-carboxynonadecanoylamino)butyryl]-[Gly1,Glu14,Arg17,Pro37]-pramlintide] ({C20 diacid-γGlu}-GCNTATCATQRLAEFLRHSSNNFGPILPPTNVGSNTP-NH2; disulfide 2-7)",>45 h,>45 h
"CC[C@H](C)[C@H](NC(=O)[C@@H]1CCCN1C(=O)CNC(=O)[C@H](Cc1ccccc1)NC(=O)[C@H](CC(N)=O)NC(=O)[C@H](CC(N)=O)NC(=O)[C@H](CO)NC(=O)[C@H](CO)NC(=O)[C@H](Cc1c[nH]cn1)NC(=O)[C@H](Cc1c[nH]cn1)NC(=O)[C@H](CC(C)C)NC(=O)[C@H](Cc1ccccc1)NC(=O)[C@H](CCC(=O)O)NC(=O)[C@H](C)NC(=O)[C@H](CC(C)C)NC(=O)[C@H](CCCNC(=N)N)NC(=O)[C@H](CCC(N)=O)NC(=O)[C@@H](NC(=O)[C@H](C)NC(=O)[C@@H]1CSSC[C@H](NC(=O)CNC(=O)CC[C@H](NC(=O)CCCCCCCCCCCCCCCCCCC(=O)O)C(=O)O)C(=O)N[C@@H](CC(N)=O)C(=O)N[C@@H]([C@@H](C)O)C(=O)N[C@@H](C)C(=O)N[C@@H]([C@@H](C)O)C(=O)N1)[C@@H](C)O)C(=O)N[C@@H](CC(C)C)C(=O)N1CCC[C@H]1C(=O)N1CCC[C@H]1C(=O)N[C@H](C(=O)N[C@@H](CC(N)=O)C(=O)N[C@H](C(=O)NCC(=O)N[C@@H](CO)C(=O)N[C@@H](CC(N)=O)C(=O)N[C@H](C(=O)N1CCC[C@H]1C(N)=O)[C@@H](C)O)C(C)C)[C@@H](C)O [Example 91, N-alpha-[(S)-4-Carboxy-4-(19-carboxynonadecanoylamino)butyryl]-[Gly1,Glu14,His17,Pro37]-pramlintide] ({C20 diacid-γGlu}-GCNTATCATQRLAEFLHHSSNNFGPILPPTNVGSNTP-NH2; disulfide 2-7 (inferred))",,29 h

# Source: patent US8741836B2, “Polypeptides” (Novo Nordisk A/S, priority 2011, dated 2014)
